US20130197009A1, “ANTAGONIST FOR MUTANT ANDROGEN RECEPTOR” (ASTELLAS PHARMA INC., priority 2010, published 2013)
Substitutions are numbered along the chain they refer to. pIC50: −log10 of the molar value.

How the values were obtained:
wild type AR (Wild) = target: T1, wild type AR (Wild) (Homo sapiens, UniProt P10275); assay: Inhibitory action against transcriptional activation of AR (luciferase reporter, CHO-K1 cells, DHT 0.3 nM)
T1 sequence (P10275 1-920): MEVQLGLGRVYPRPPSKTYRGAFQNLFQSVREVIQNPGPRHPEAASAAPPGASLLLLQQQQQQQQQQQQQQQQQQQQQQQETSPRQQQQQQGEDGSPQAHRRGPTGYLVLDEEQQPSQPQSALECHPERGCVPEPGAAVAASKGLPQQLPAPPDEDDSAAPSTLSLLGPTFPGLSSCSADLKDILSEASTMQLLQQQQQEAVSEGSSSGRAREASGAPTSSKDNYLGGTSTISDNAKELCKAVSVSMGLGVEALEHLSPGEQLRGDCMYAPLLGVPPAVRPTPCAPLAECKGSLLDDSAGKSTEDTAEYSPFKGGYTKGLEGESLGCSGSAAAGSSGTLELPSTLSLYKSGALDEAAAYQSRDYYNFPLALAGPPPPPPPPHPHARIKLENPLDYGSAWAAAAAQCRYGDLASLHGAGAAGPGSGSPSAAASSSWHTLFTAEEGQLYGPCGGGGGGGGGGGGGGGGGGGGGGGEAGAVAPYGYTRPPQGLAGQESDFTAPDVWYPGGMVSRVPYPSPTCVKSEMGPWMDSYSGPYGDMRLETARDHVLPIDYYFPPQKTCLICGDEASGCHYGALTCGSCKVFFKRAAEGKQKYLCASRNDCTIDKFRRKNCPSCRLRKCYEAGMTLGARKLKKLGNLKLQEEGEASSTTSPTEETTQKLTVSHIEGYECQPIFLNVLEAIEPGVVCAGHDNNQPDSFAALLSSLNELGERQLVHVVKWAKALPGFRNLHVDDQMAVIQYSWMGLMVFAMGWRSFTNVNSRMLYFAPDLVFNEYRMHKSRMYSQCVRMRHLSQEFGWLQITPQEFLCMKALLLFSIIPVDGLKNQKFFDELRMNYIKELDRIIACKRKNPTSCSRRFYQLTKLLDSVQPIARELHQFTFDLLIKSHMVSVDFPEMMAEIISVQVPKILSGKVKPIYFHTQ

human T877A mutant AR = target: T2, human T877A mutant AR (Homo sapiens, UniProt P10275, T878A); assay: Inhibitory action against transcriptional activation of mutant AR (luciferase reporter, CHO-K1 cells, DHT 0.3 nM); format: cell-based; conditions: CHO-K1 cells stably expressing T877A mutant AR, with DHT 0.3 nM, >1000 nM means no inhibitory action observed, read-out: IC50, inhibition of transcriptional activation, T877A
T2 construct: expressed in transfected cells; host or cells: CHO-K1
T2 sequence (P10275 1-920 T878A): T1 sequence (P10275 1-920) with T878A
Description: Subsequently, the cells were incubated overnight again at 37° C. and then treated with a luciferase assay system.
An IC50 value was calculated by Sigmoid-Emax model nonlinear regression analysis.
The inhibitory action of the respective test compounds against the receptor was calculated as an IC50 value, and the values are described in the following table. In addition, “-” means that the test was not performed.

pIC50 (wild type AR (Wild))	pIC50 (human T877A mutant AR)	Structure (SMILES)
6.85	6.46	CC(C)Oc1cc(N2C[C@@H](C)N(C(=O)Nc3cnc(C4CC4)nc3)C[C@@H]2C)ccc1C#N [Ref 1-1, reference compound]
7.24	7.05	COc1cc(N2C[C@@H](C)N(C(=O)Nc3nc(C)cc(O)n3)C[C@@H]2C)ccc1C#N [Ref 1-2, reference compound]

The next lines start with the compound.

Structure (SMILES)	pIC50 (wild type AR (Wild))	pIC50 (human T877A mutant AR)
COc1cc(N2C[C@@H](C)N(C(=O)Nc3cc(C)nc(C)n3)C[C@@H]2C)ccc1C#N [Ex 7, (2R,5S)-4-(4-cyano-3-methoxyphenyl)-N-(2,6-dimethylpyrimidin-4-yl)-2,5-dimethylpiperazine-1-carboxamide]	7.12	
C[C@@H]1CN(c2ccc(C#N)c(Cl)c2)[C@@H](C)CN1C(=O)Nc1cnc(N2CCCCC2)nc1 [Ex 8, (2R,5S)-4-(3-chloro-4-cyanophenyl)-2,5-dimethyl-N-[2-(piperidin-1-yl)pyrimidin-5-yl]piperazine-1-carboxamide]	7.77	
COc1ncc(NC(=O)N2C[C@H](C)N(c3ccc(C#N)c(Br)c3)C[C@H]2C)cn1 [Ex 11, (2R,5S)-4-(3-bromo-4-cyanophenyl)-N-(2-methoxypyrimidin-5-yl)-2,5-dimethylpiperazine-1-carboxamide]	7.59	7.64
Cc1cc(NC(=O)N2C[C@H](C)N(c3ccc(C#N)c(Cl)c3)C[C@H]2C)cc(Cl)n1 [Ex 16, (2R,5S)-4-(3-chloro-4-cyanophenyl)-N-(2-chloro-6-methylpyridin-4-yl)-2,5-dimethylpiperazine-1-carboxamide]	7.35	7.62
COc1cc(NC(=O)N2C[C@H](C)N(c3ccc(C#N)c(Cl)c3)C[C@H]2C)cc(C)n1 [Ex 18, (2R,5S)-4-(3-chloro-4-cyanophenyl)-N-(2-methoxy-6-methylpyridin-4-yl)-2,5-dimethylpiperazine-1-carboxamide]	8.00	7.82
COc1cc(NC(=O)N2C[C@H](C)N(c3ccc(C#N)c(Br)c3)C[C@H]2C)cc(C)n1 [Ex 19, (2R,5S)-4-(3-bromo-4-cyanophenyl)-N-(2-methoxy-6-methylpyridin-4-yl)-2,5-dimethylpiperazine-1-carboxamide]	7.96	7.72
C[C@@H]1CN(c2ccc(C#N)c(Cl)c2)[C@@H](C)CN1C(=O)Nc1cnc2ccccc2n1 [Ref 1-3, (2R,5S)-4-(3-chloro-4-cyanophenyl)-2,5-dimethyl-N-(quinoxalin-2-yl)piperazine-1-carboxamide, reference compound]	7.29	6.17
